Reference: US20080275018A1, “ANTIBACTERIAL AMIDE-MACROCYCLES V” (AiCuris GmbH & Co. KG, priority 2005, published 2008)
Where a name gives a salt, the structure may show the parent alone. Read-outs that look alike come from different tables or passages of the source.

Assays:
E. faecium L4001 = assay: Minimum inhibitory concentration (MIC), E. faecium L4001; assay type: cell-based, Enterococcus faecium; conditions: Enterococcus faecium
Protocol: (§1) The minimum inhibitory concentration (MIC) is the minimum concentration of an antibiotic with which the growth of a test microbe is inhibited over 18-24 h. The inhibitor concentration can in these cases be determined by standard microbiological methods (see, for example, The National Committee for Clinical Laboratory Standards. Methods for dilution antimicrobial susceptibility tests for bacteria that grow aerobically; approved standard-fifth edition. NCCLS document M7-A5 [ISBN 1-56238-394-9]. NCCLS, 940 West Valley Road, Suite 1400, Wayne, Pa. 19087-1898 USA, 2000). The MIC of the compounds of the invention is determined in the liquid dilution test on the 96-well microtiter plate scale. The bacterial microbes are cultivated in a minimal medium (18.5 mM Na2HPO4, 5.7 mM KH2PO4, 9.3 mM NH4Cl, 2.8 mM MgSO4, 17.1 mM NaCl, 0.033 μg/ml thiamine hydrochloride, 1.2 μg/ml nicotinic acid, 0.003 μg/ml biotin, 1% glucose, 25 μg/ml of each proteinogenic amino acid with the exception of phenylalanine; [H.-P. Kroll; unpublished]) with the addition of 0.4% BH broth (test medium). In the case of Enterococcus faecium L4001, heat-inactivated fetal calf serum (FCS; GibcoBRL, Germany) is added to the test medium in a final concentration of 10%. Overnight cultures of the test microbes are diluted to an OD578 of 0.001 (to 0.01 in the case of enterococci) in fresh test medium, and incubated 1:1 with dilutions of the test substances (1:2 dilution steps) in test medium ([…]). The cultures are incubated at 37° C. for 18-24 hours; enterococci in the presence of 5% CO2.
(§2) The lowest substance concentration in each case at which no visible bacterial growth occurs any longer is defined as the MIC.

S. aureus T17 = assay: Minimum inhibitory concentration (MIC), biphenomycin-resistant S. aureus T17; assay type: cell-based, Staphylococcus aureus; conditions: Staphylococcus aureus; biphenomycin-resistant S. aureus T17
Protocol: (§3) The minimum inhibitory concentration (MIC) is the minimum concentration of an antibiotic with which the growth of a test microbe is inhibited over 18-24 h. The inhibitor concentration can in these cases be determined by standard microbiological methods (see, for example, The National Committee for Clinical Laboratory Standards. Methods for dilution antimicrobial susceptibility tests for bacteria that grow aerobically; approved standard-fifth edition. NCCLS document M7-A5 [ISBN 1-56238-394-9]. NCCLS, 940 West Valley Road, Suite 1400, Wayne, Pa. 19087-1898 USA, 2000). The test substances are thereby initially provided in 1:2 dilution series into 96-well round-bottom microtiter plates (Greiner) double-concentrated in 50 μl of test medium. The aerobically growing test microbes (e.g. staphylococci and enterococci), which are incubated overnight on Columbia blood agar plates (Becton-Dickinson), are, after resuspension in 0.9% NaCl, adjusted to a microbe count of about 5×10^7 microbes/ml and then diluted 1:150 in cation-adjusted MH medium (test medium). 50 μL of this suspension are pipetted onto the test preparations provided in the microtiter plates. The cultures are incubated at 37° C. for 18-24 hours. For microaerophilically growing microbes (e.g. streptococci), 2% lysed horse blood in the final concentration is added to the medium and the cultures are incubated in the presence of 5% CO2. The lowest substance concentration in each case at which no visible bacterial growth occurs any longer is defined as the MIC and is reported in μg/ml.
as §1, §2
(§4) The minimum inhibitory concentration (MIC) is the minimum concentration of an antibiotic with which the growth of a test microbe is inhibited over 18-24 h. The inhibitor concentration can in these cases be determined by standard microbiological methods with modified medium in an agar dilution test (see, for example, The National Committee for Clinical Laboratory Standards. Methods for dilution antimicrobial susceptibility tests for bacteria that grow aerobically; approved standard-fifth edition. NCCLS document M7-A5 [ISBN 1-56238-394-9]. NCCLS, 940 West Valley Road, Suite 1400, Wayne, Pa. 19087-1898 USA, 2000). The bacterial microbes are cultivated on 1.5% agar plates which contain 20% defibrinated horse blood. […]

S. aureus 133 [1] = assay: Systemic infection with S. aureus 133 (mouse sepsis model); assay type: in vivo, mouse (female CFW1); conditions: i.p. infection with S. aureus 133, i.v. therapy 30 minutes after infection, survival recorded for 6 days
Protocol: For this purpose, S. aureus 133 cells are cultured overnight in BH broth (Oxoid, Germany). The overnight culture was diluted 1:100 in fresh BH broth and expanded for 3 hours. The bacteria which are in the logarithmic phase of growth are centrifuged and washed twice with a buffered physiological saline solution. A cell suspension in saline solution with an extinction of 50 units is then adjusted in a photometer (Dr Lange LP 2W). After a dilution step (1:15), this suspension is mixed 1:1 with a 10% mucine suspension. 0.2 ml of this infection solution is administered i.p. per 20 g of mouse. This corresponds to a cell count of about 1-2×10^6 microbes/mouse. The i.v. therapy takes place 30 minutes after the infection. Female CFW1 mice are used for the infection experiment. The survival of the animals is recorded for 6 days. The animal model is adjusted so that untreated animals die within 24 h after the infection.

S. aureus 133 [2] = assay: Minimum inhibitory concentration (MIC), S. aureus 133; assay type: cell-based, Staphylococcus aureus
Protocol: as §3, §1, §2, §4

[3] = biological target: S. aureus 133 Translation; assay: S. aureus in vitro transcription-translation assay (firefly luciferase, S30 extract); assay type: biochemical; conditions: 50% inhibition of the translation of firefly luciferase
Text: For the construction of a reporter plasmid which can be used in an in vitro transcription-translation assay from S. aureus the plasmid pBESTluc (Promega Corporation, USA) is used. The E. coli tac promoter present in this plasmid in front of the firefly luciferase is replaced by the capA1 promoter with corresponding Shine-Dalgarno sequence from S. aureus. The primers CAPFor 5′-[…]-[…] GCCA-3′ and CAPRev 5′-[…]-3′ are used for this. The primer CAPFor contains the capA1 promoter, the ribosome binding site and the 5′ region of the luciferase gene. After PCR using pBESTluc as template it is possible to isolate a PCR product which contains the firefly luciferase gene with the fused capA1 promoter. This is, after restriction with ClaI and HindIII, ligated into the vector pBESTluc which has likewise been digested with ClaI and HindIII. The resulting plasmid pla can be replicated in E. coli and be used as template in the S. aureus in vitro transcription-translation test.
Six litres of BHI medium are inoculated with a 250 ml overnight culture of an S. aureus Strain and allowed to grow at 37° C. until the OD600 nm is 2-4. The cells are harvested by centrifugation and washed in 500 ml of cold buffer A (10 mM Tris acetate, pH 8.0, 14 mM magnesium acetate, 1 mM DTT, 1 M KCl). After renewed centrifugation, the cells are washed in 250 ml of cold buffer A with 50 mM KCl, and the resulting pellets are frozen at −20° C. for 60 min. The pellets are thawed on ice in 30 to 60 min and taken up to a total volume of 99 ml in buffer B (10 mM Tris acetate, pH 8.0, 20 mM magnesium acetate, 1 mM DTT, 50 mM KCl). 1.5 ml portions of lysostaphin (0.8 mg/ml) in buffer B are provided in 3 precooled centrifuge cups and each mixed with 33 ml of the cell suspension. The samples are incubated at 37° C., shaking occasionally, for 45 to 60 min, before 150 μl of a 0.5 M DTT solution are added. The lysed cells are centrifuged at 30 000×g and 4° C. for 30 min. The cell pellet is taken up in buffer B and then centrifuged again under the same conditions, and the collected supernatants are combined. The supernatants are centrifuged again under the same conditions, and 0.25 volumes of buffer C (670 mM Tris acetate, pH 8.0, 20 mM magnesium acetate, 7 mM Na3 phosphoenolpyruvate, 7 mM DTT, 5.5 mM ATP, 70 μM amino acids (complete from Promega), 75 μg of pyruvate kinase (Sigma, Germany)/ml are added to the upper ⅔ of the supernatant. The samples are incubated at 37° C. for 30 min. The supernatants are dialysed against 2 l of dialysis buffer (10 mM Tris acetate, pH 8.0, 14 mM magnesium acetate, 1 mM DTT, 60 mM potassium acetate) in a dialysis tube with a 3500 Da cut-off with one buffer change at 4° C. overnight. The dialysate is concentrated to a protein concentration of about 10 mg/ml by
covering the dialysis tube with cold PEG 8000 powder (Sigma, Germany) at 4° C. The S30 extracts can be stored in aliquots at −70° C.
The inhibition of protein biosynthesis of the compounds can be shown in an in vitro transcription-translation assay. The assay is based on the cell-free transcription and translation of firefly luciferase using the reporter plasmid pla as template and cell-free S30 extracts obtained from S. aureus. The activity of the resulting luciferase can be detected by luminescence measurement.
The amount of S30 extract or plasmid pla to be employed must be tested anew for each preparation in order to ensure an optimal concentration in the test. […] of the substance to be tested, dissolved in 5% DMSO, are introduced into an MTP. Then […] of a suitably concentrated plasmid solution pla are added. […]

| Structure (SMILES) | MIC (E. faecium L4001; L4001, read-out: MIC E. faecium L4001) [µg/mL] | MIC (S. aureus T17) [µg/mL] | therapeutic effect ED100 (S. aureus 133 [1]) [mg/kg] | MIC (S. aureus 133 [2]; Staphylococcus aureus, 133, read-out: MIC S. aureus 133) [µg/mL] | IC50 [3] [nM] | MIC (E. faecium L4001; E. faecium L4001, 10% FCS in test medium, read-out: MIC E. faecium L4001) [µg/mL] | MIC (S. aureus 133 [2]; Staphylococcus aureus, 133; read-out: MIC S. aureus 133) [µg/mL] |
| --- | --- | --- | --- | --- | --- | --- | --- |
| NCCC[C@H](N)CNC(=O)CNC(=O)[C@@H]1Cc2cccc(c2)-c2ccc(O)c(c2)C[C@H](N)C(=O)N[C@@H](C[C@@H](O)CN)C(=O)N1 [Example 2, (8S,11S,14S)-14-Amino-11-[(2R)-3-amino-2-hydroxypropyl]-N-(2-{[(2S)-2,5-diaminopentyl]-amino}-2-oxoethyl)-17-hydroxy-10,13-dioxo-9,12-diazatricyclo[14.3.1.1^2,6]henicosa-1(20),2(21),3,5,16,18-hexaene-8-carboxamide tetrahydrochloride] | 2 | 1 | 1.25 | 1 | 70 |  |  |
| NCCC[C@H](NC(=O)[C@@H]1Cc2cccc(c2)-c2ccc(O)c(c2)C[C@H](N)C(=O)N[C@@H](C[C@@H](O)CN)C(=O)N1)C(=O)NCCN [Example 1, (8S,11S,14S)-14-Amino-N-((1S)-4-amino-1-{[(2-aminoethyl)amino]carbonyl)}butyl)-11-[(2R)-3-amino-2-hydroxypropyl]-17-hydroxy-10,13-dioxo-9,12-diazatricyclo[14.3.1.1^2,6]-henicosa-1 (20),2(21),3,5,16,18-hexaene-8-carboxamide tetrahydrochloride] |  | 1 |  |  | 70 | 4 | 0.5 |
